Data taken from PMC8534003, “The Chemokine-Based Peptide, CXCL9(74-103), Inhibits Angiogenesis by Blocking Heparan Sulfate Proteoglycan-Mediated Signaling of Multiple Endothelial Growth Factors” (Cancers, 2021).

Legend:
[1] = system: FGF-2-induced angiogenesis, C57BL/6 mice; experiment: In vivo angiogenesis Matrigel plug assay; set-up: species or system mouse; conditions: data not shown
Procedure: Six-to-eight-week-old female C57BL/6 mice were anesthetized with a mixture of 2.5 mg/mL xylazine (V.M.D, Inovet, Arendonk, Belgium) and 37.5 mg/mL ketamine (Dechra, Northwich, UK) in PBS by i.p. injection. A vertical dorsal incision was made and an ALZET osmotic pump (model 1007D, DURECT Corporation, Cupertine, CA, USA) filled with 400 µg/100 µL CXCL9(74-103) or 100 µL PBS was subcutaneously (s.c.) implanted. The incision was closed with a surgical suture. Growth factor-reduced Matrigel (Corning Matrigel Growth Factor (GFR) Basement Membrane Matrix, Phenol Red-Free, LDEV-Free; Corning Life Sciences, Amsterdam, The Netherlands) was s.c. injected in the dorsal flank forming a firm plug (600 µL/plug). The Matrigel was either injected as such (control plugs) or supplemented with 300 µg CXCL9(74-103) and/or 180 ng FGF-2. Seven days later, the mice were sacrificed. Thirty minutes before sacrifice, the mice were i.v. injected with 200 µL (25 mg/kg) FITC-labeled 2000 kDa dextran (Sigma-Aldrich) to quantify vessel formation in the Matrigel plugs. Blood was collected through cardiac puncture into heparinized tubes containing 20 µL heparin (5.000 IE/mL, Leo Pharma, Ballerup, Denmark). The blood was centrifuged at 200 g and 4 °C for 10 min, whereafter the supernatant was centrifuged at 3000 g and 4 °C for 10 min. The collected plasma was stored away from light at 4 °C until analysis. The Matrigel plugs were removed and enzymatically and mechanically digested in 1.2 mL dispase (Corning Life Sciences) using an incubation at 37 °C for 1.5 h and the gentleMACS™ Dissociator (Miltenyi Biotec, Bergisch Gladbach, Germany). The digested Matrigel plugs were filtered through a 70 µm cell strainer, washed with 1.5 mL FACS buffer [2% (v/v) FCS + 2 mM EDTA in PBS] and centrifuged at 300 g and 4 °C for 7 min. The supernatant (SN) was centrifuged again at 300 g and 4 °C for 7 min and the SN was retained away from light at 4 °C until analysis. The pellet was resuspended in 1 mL FACS buffer, the cells were counted and used for flow cytometry. The antibodies used to identify endothelial cells were anti-mouse CD45-APC (clone 30-F11, eBioscience, Thermo Fisher Scientific), anti-mouse CD146-PE (clone ME-9F1) and anti-mouse Pan-endothelial Cell Antigen-BV711 (clone MECA-32) antibodies (both BD Biosciences). Mice experiments were approved by the Ethical Committee of KU Leuven (project number P199/2018).

[2] = system: MDA-MB-231 breast cancer xenograft; experiment: In vivo MDA-MB-231 breast cancer mouse model; set-up: species or system human tumor cells in SCID mice; conditions: 800 µg s.c. osmotic pump; text says data not shown
Procedure: Six-to-eight-week-old female SCID mice were s.c. injected with 6 × 10^6 MDA-MB-231 breast tumor cells (American Type Culture Collection, Manassas, VA) in 200 µL PBS. Three days later, mice were anesthetized as described (vide supra), a dorsal incision was made and an ALZET osmotic pump (model 1002, DURECT Corporation) containing 800 µg/100 µL CXCL9(74-103) or CXCL9(86-103) or 100 µL PBS was s.c. implanted, which delivered a continuous dose over the course of two weeks. Three weeks after tumor cell injection, mice were sacrificed. Tumors were isolated, minced and added to 2 mL of tumor cell medium [TCM; 5% (v/v) FCS in RPMI 1640 + Glutamax (Gibco)]. After centrifugation (500 g, room temperature, 5 min), minced tumors were incubated at 37 °C for 30 min in 3 mL of digestion medium [2 mg/mL collagenase D, 0.1 mg/mL DNAse and 5 U/mL dispase (Corning Life Sciences) in TCM]. Subsequently, tumor fragments were further disrupted using a 1 mL syringe and 18G needle, and 2 mL of digestion medium was added for an additional incubation at 37 °C for 15 min. […] After centrifugation (500 g, 4 °C, 5 min), the pellet was resuspended in 500 µL of 2% (v/v) FCS in PBS and the cells were counted. To assess the anti-angiogenic potential of the CXCL9-derived peptides, the population of endothelial cells within the tumor samples was determined via flow cytometry (vide supra).

phospho-ERK1/2 = experiment: Signal transduction assay, VEGF165-induced ERK phosphorylation in MECs (ELISA); assay type: cell-based, mouse; conditions: murine VEGF165 5 ng/mL 5 min, peptide 1 µM, n ≥ 3
Procedure: HMVECs and MECs were seeded in 6-well plates at 1.25 × 10^5 cells/well in their respective culture medium. Once the cell density reached 70–80% confluency, the cells were starved in serum-free medium overnight. Fifteen minutes prior to stimulation, cells were incubated with various concentrations of CXCL9(74-103) or CXCL9(86-103) in 0.5% (v/v) BSA in MCDB131 or DMEM medium (assay medium for HMVECs and MECs, respectively) at 37 °C. HMVECs and MECs were stimulated with assay medium alone or supplemented with 10 ng/mL EGF or 5 ng/mL murine VEGF165 at 37 °C for 15 or 5 min, respectively. Then, the cells were placed on ice, washed with ice-cold PBS and 90 µL of lysis buffer [1% (v/v) protease inhibitor cocktail, phosphatase inhibitor cocktail 2 and 3 (all Sigma-Aldrich) in 1 mM ethylenediaminetetraacetic acid (EDTA), 0.5% (v/v) Triton™ X-100, 5 mM NaF, 6 M urea in PBS] was added per well. […] The amount of phospho-ERK1/2 in the cell lysates was determined using an ERK1 (Thr202/Tyr204)/ERK2 (Thr185/Tyr187) ELISA duoset (R&D Systems) according to the manufacturer’s instructions. The amount of phosphorylated ERK was normalized to the total protein content in the samples measured by the Pierce™ bicinchoninic acid (BCA) protein assay kit (Thermo Fisher Scientific).

KKVLKVRKSQRSRQKKTT [CXCL9(86-103)]
FGF-2-induced angiogenesis in the Matrigel plug assay [1]: no anti-angiogenic activity | tumor-associated angiogenesis [2]: no anti-angiogenic activity | VEGF165-induced ERK phosphorylation (phospho-ERK1/2): did not result in a reduction of VEGF165-induced ERK phosphorylation
